Source: paper PMC9953967, “Discovery of Novel Bioactive Tanshinones and Carnosol Analogues against Breast Cancer” (Cancers, 2023)
Read-outs that look alike come from different tables or passages of the source.

How the values were obtained:
T47D [1] = assay: CellTiterGlo luminescent cell viability assay, T47D; settings: Homo sapiens, 72 h
Procedure: (§1) A cell proliferation assay was performed using the CellTiterGlo (CTG, Promega Corp., Madison, WI, USA) luminescent cell viability assay kit. MDA-MB231 cells were seeded into 96-well plates at concentrations experimentally determined to ensure logarithmic growth during the duration of the experiment and to prevent adverse effects on cell growth by DMSO exposure. The plates were incubated 12 h before treatment. […] The final concentration of DMSO was 0.3% (v/v) in each well. The positive control used was staurosporine (1 μM) and a toxic quinolone generated inhouse, as kill-all controls, and the negative control used was cholesterol. […] The plates were incubated for 72 h and then quenched with CTG at 50 μL per well at RT. Plates were then incubated at RT for 20 min and centrifuged at 1000 rpm for 1 min. Luminescence was read on a CLARIOstar Plus plate reader (BMG LabTech, Ortenberg, Germany). The cell viability assay was also performed in the non-neoplastic cell line BJ, which was incubated with compounds, as mentioned in cell viability assay (CTG). The mean luminescence of each experimental treatment group was normalized as a percentage of the mean intensity of untreated controls. EC50 values were calculated from dose-response curve-fitting via non-linear regression using GraphPad Prism 9.0 (GraphPad Software, San Diego, CA, USA) (Figure S1).

SUM149 [2] = assay: CellTiterGlo luminescent cell viability assay, SUM149
Procedure: as §1

[3] = tested on: several cell models of breast cancer; design: method as in PMID 26241873; settings: read-out: EC50 antiproliferative activity; cited from earlier work
MDA-MB231 [4] = tested on: MDA-MB231; design: method as in PMID 26241873; settings: cited from earlier work
MCF07 [5] = assay: CellTiterGlo luminescent cell viability assay, MCF07
Procedure: as §1

MDA-MB231 [6] = assay: CellTiterGlo luminescent cell viability assay, MDA-MB231
Procedure: as §1

[7] = CellTiterGlo cell viability assay, non-neoplastic cell line BJ; settings: human, BJ cells (non-neoplastic, non-tumorigenic cell line), Cytotoxicity IC50 BJ, 72 h incubation, CellTiter-Glo, mean ± SD
Procedure: as §1

[8] = tested on: non-tumorigenic cell line BJ; assay: as above; settings: read-out: Cytotoxicity IC50 BJ, 72 h incubation, CellTiter-Glo, mean ± SD
Procedure: as §1

[9] = Ferric Reducing Antioxidant Power (FRAP) assay; settings: compounds at 100 μM; positive control ascorbic acid 1 mM
Procedure: An antioxidant evaluation of the compounds was performed using the Ferric Reducing Antioxidant Power (FRAP) Assay Colorimetric Kit (ab234626, Abcam, Cambridge, UK) following the manufacturers’ instructions. Briefly, FRAP reagents were mixed with compounds at 100 μM in 96-well plates, and then reacted for 10 min at 37 °C in the dark. Ascorbic acid was provided as the positive control (1mM). After incubation, the absorbance was read using a microplate reader (CLARIOstar Plus, BMG LabTech, Ortenberg, Germany) at 594 nm. FRAP [19] was quantified using a reagent calibration curve (Y = 0.039X + 0.002, R^2 = 0.9978) and calculated as nmol Ferrous equivalents.

T47D [10] = settings: human, 72 h
Procedure: as §1

in vitro = settings: human, Cytotoxicity IC50 BJ
Procedure: as §1

[11] = tested on: non-tumorigenic cell line BJ; settings: human, 72 h
Procedure: as §1

HBL-100 and T-47D = tested on: HBL-100 and T-47D; design: method as in PMID 30840453; settings: two breast cancer cell lines HBL-100 and T-47D, SRB assay; cited from earlier work
MCF-7 = tested on: MCF-7; design: method as in PMID 30793595; settings: read-out: Antiproliferative activity, sulforhodamine B assay, MCF-7; cited from earlier work
MDA-MB231 [12] = tested on: MDA-MB231; design: method as in PMID 30793595; settings: read-out: Antiproliferative activity, sulforhodamine B assay, MDA-MB231; cited from earlier work
MCF07 [13] = tested on: MCF07
Procedure: as §1

SUM149 [14] = tested on: SUM149
Procedure: as §1

MDA-MB231 [15] = assay: Propidium iodide (PI) assay with Hoechst counterstain; type: cell-based, human; settings: MDA-MB231, 48 h, 25 μM
Procedure: Propidium iodide (PI) assay was performed to complement the viability assay. The assay was conducted with MDA-MB231 cancer cell models seeded in 48-well plates (Clear, Corning#3548) and cultured for 12 h, then treated for 48 h. Cells were fixed with cold methanol, and stained (0.4% PI, Sigma-Aldrich, Co., St. Louis, MO, USA). Fluorescence was measured and analyzed using Cytation 1 Image Reader (BioTek, Winooski, VT, USA). Cell viability was calculated/plotted as the percentage of surviving cells after treatment relative to the vehicle. For qualitative analysis and visualization, doubling staining was performed using Hoechst dye to stain nuclei.

[16] = read-out: Cytotoxicity IC50 T47D, 72 h incubation, CellTiter-Glo, mean ± SD
[17] = Homo sapiens, SUM149, 72 h, read-out: Cytotoxicity IC50 SUM149
[18] = Homo sapiens, 72 h, read-out: Cytotoxicity IC50 MCF07, 72 h incubation, CellTiter-Glo, mean ± SD
[19] = Homo sapiens, MDA-MB-231, 72 h, read-out: Cytotoxicity IC50 MDA-MB231, 72 h incubation, CellTiter-Glo, mean ± SD
[20] = read-out: Cytotoxicity IC50 MDA-MB231, 72 h incubation, CellTiter-Glo, mean ± SD

| Structure (SMILES) | IC50 (T47D [1]; [16]) [µM] | IC50 (SUM149 [2]; [17]) [µM] | EC50 [3] [µM] | IC50 (MCF07 [5]; [18]) [µM] | IC50 (MDA-MB231 [6]; [19]) [µM] | IC50 at 72 h [7] [µM] | IC50 [8] [µM] | IC50 at 72 h (in vitro) [µM] | also measured |
| --- | --- | --- | --- | --- | --- | --- | --- | --- | --- |
| CC(C)c1cc2c(cc1O)[C@@]1(C)CCCC(C)(C)[C@@H]1CC2 [Compound 1, ferruginol] | > 100 | > 50 | < 50 | 19 ± 1.5 | 8.3 ± 1.4 | > 50 |  |  | Inhibition of cell cycle progression at the G2/M phase (MDA-MB231 [4]): 19%; Cell cycle arrest at G0/G1 (MDA-MB231 [4]; positive control 43%, negative control 48.36%): 50.76% |
| CC(C)c1cc2c(cc1O)[C@@]1(C)CCC[C@@](C)(CN3C(=O)c4ccccc4C3=O)[C@@H]1CC2 [Compound 6, 18-(phthalimid-2-yl)ferruginol] |  |  |  |  | 8.22 ± 0.47 | 74.8 ± 5.3 | 74.8 ± 5.3 |  | IC50 (T47D [1]; read-out: Cytotoxicity IC50 T47D): 29.2 ± 1.5 µM; IC50 (SUM149 [2]; Homo sapiens, SUM149, 72 h, read-out: Cytotoxicity IC50 SUM149, 72 h incubation, CellTiter-Glo, mean ± SD): 4.45 ± 0.2 µM; IC50 (SUM149 [2]; read-out: Cytotoxicity IC50 SUM149, 72 h incubation, CellTiter-Glo, mean ± SD): 4.4 ± 0.2 µM; IC50 (MCF07 [5]; Homo sapiens, 72 h, read-out: Cytotoxicity IC50 MCF07): 13 ± 0.6 µM; IC50 (MDA-MB231 [6]; [20]): 8.2 ± 0.5 µM |
| COC(=O)[C@]1(C)CCC[C@]2(C)C3=C(C=C(C(C)C)C(=O)C3=O)CC[C@@H]12 [Compound 7, Methyl 11,12-Dioxo-abieta-8,13-dien-18-oate] | 14.1 ± 0.5 | 1.3 ± 0.6 |  | 8.29 ± 0.93 | 3.95 ± 0.8 | 56.5 ± 6.1 | 56.5 ± 6.1 |  | IC50 (MCF07 [5]; read-out: Cytotoxicity IC50 MCF07, 72 h incubation, CellTiter-Glo, mean ± SD): 8.3 ± 0.9 µM; IC50 (MDA-MB231 [6]; [20]): 3.9 ± 0.8 µM; Antioxidant potential (FRAP) [9]: significant antioxidant potential |
| CC(C)c1cc2c(c(O)c1O)[C@@]1(C)CCC[C@@](C)(CN3C(=O)c4ccccc4C3=O)[C@@H]1CC2 [Compound 10, 11,12-Dihydroxy-N,N-(phthaloyl)dehydroabietylamine] | 8.17 ± 0.44 | 1.8 ± 0.2 |  | 4.6 ± 0.6 | 2.8 ± 0.2 |  |  | 32.5 ± 5 | IC50 (T47D [10]): 8.2 ± 0.4 µM; IC50 [11]: 32.5 ± 5 µM |
| CC(C)c1ccc2c(c1)CC[C@H]1[C@](C)(CN)CCC[C@]21C [dehydroabietylamine] |  |  | < 50 |  |  |  |  |  |  |
| COC(=O)[C@]1(C)CCC[C@]2(C)c3cc(O)c(C(C)C)cc3CC[C@@H]12 [Compound 5, Methyl 12-hydroxyabieta-8,11,13-trien-18-oate] |  |  |  |  |  |  |  |  | GI50 (HBL-100 and T-47D): 9.7 to 19 µM; IC50 (MCF-7): 5.9 µM; IC50 (MDA-MB231 [12]): 18.6 µM |
| COC(=O)[C@]1(C)CCC[C@]2(C)c3c(cc(C(C)C)c(O)c3O)CC[C@@H]12 [Compound 9, Methyl 11,12-Dihydroxy-dehydroabietate] | 14.4 ± 0.6 | > 50 |  | > 50 | 9.4 ± 0.4 |  |  | 57.6 ± 3 | Cytotoxicity IC50 MCF07 (MCF07 [13]): removed the activity; Cytotoxicity IC50 SUM149 (SUM149 [14]): removed the activity; Antioxidant potential (FRAP) [9]: significant antioxidant potential; IC50 (MCF-7): 2.8 µM; IC50 [11]: 57.6 ± 3 µM; IC50 (MDA-MB231 [12]): 2.7 µM |
| CC(C)c1cc2c(c(O)c1O)[C@@]13CCCC(C)(C)[C@@H]1C[C@@H]2OC3=O [Compound 4, carnosol] |  |  | < 50 |  |  |  |  |  |  |
| CC(C)C1=CC2=C(C(=O)C1=O)[C@@]1(C)CCC[C@@](C)(CN3C(=O)c4ccccc4C3=O)[C@@H]1CC2 [Compound 8, 11,12-Dioxo-N,N-(phthaloyl)dehydroabietylamine] | 18.7 ± 0.3 | 1.5 ± 0.4 |  | 2.3 ± 1.1 | 2.8 ± 0.4 | 35.4 ± 5 | 35.4 ± 5 |  | Dose-dependent cell death (PI staining) (MDA-MB231 [15]): clearly indicates this dependency |
| CC(C)c1cc2c(cc1O)[C@@]1(C)CCC[C@@](C)(CN)[C@@H]1CC2 [Compound 2, 12-hydroxydehydroabietylamine] | > 50 | 4.4 ± 0.3 |  | 10 ± 1.5 | 5.1 ± 0.6 |  |  | 75 ± 6.2 |  |
